What was measured:
Lrat−/− mice [1] = assay: Bioavailability comparison of oral 9-cis-retinaldehyde and 9-cis-retinyl acetate, by chromophore levels in LRAT−/− mice (Example 5); format: in vivo, mouse; conditions: low (10 μmoles) and high (15 μmoles) doses, effect more pronounced at low dose, FIG. 7
Experimental: A comparison of the bioavailability of orally delivered 9-cis-retinaldehyde and 9-cis-retinyl acetate in an LRAT−/− model. 9-cis-retinaldehyde and 9-cis-retinyl acetate were administered at low (10 μmoles) and high (15 μmoles) doses to LRAT−/− mice. Chromophore levels (as 9-cis-retinal oximes) were determined as described previously. See Van Hooser et at, J. Biol. Chem. 277:19173-182 (2002); Van Hooser et al., Proc. Natl. Acad. Sci. USA 97:8623-28 (2000); Maeda et al., J. Neurochem. 85:944-56 (2003). All reactions involving retinoids were carried out under dim red light.

Lrat−/− mice [2] = assay: 9-cis-RAL oxime levels in eyes of Lrat−/− mice after single or multiple oral doses (Example 3); format: in vivo, mouse
Experimental: Levels of 9-cis-RAL oximes (measured as syn- and anti-9-cis-retinyl aldehyde) in the eyes of Lrat−/− mice after a single dose or multiple doses of 9-cis-retinyl-acetate (9-cis-R-Ac). Doses of 9-cis-R-Ac were administered to Lrat−/− mice by oral gavage in vegetable oil (100% canola oil) in a volume of 500 ill (2.5 mg/ml). The mice weighed about 30-50 g. After 3 days, 9-cis-RAL oximes levels were determined by HPLC. Briefly, all experimental procedures related to extraction, derivatization, and separation of retinoids from dissected mouse eyes were carried out as described previously. See Van Hooser et al., J. Biol. Chem. 277:19173-182 (2002); Van Hooser et al., Proc. Natl. Acad. Sci. USA 97:8623-28 (2000); Maeda et al., J. Neurochem. 85:944-56 (2003). All reactions involving retinoids were carried out under dim red light.
Referring to FIG. 5a, the level of 9-cis-RAL in Lrat−/− in mouse eyes after a varying dose of 9-cis-R-Ac is shown. Peaks were identified by retention time and UV spectra and compared to standards. The spike around 19 min resulted from changes in the solvent composition. Retinoid analysis was performed on an HP1100 HPLC equipped with a diode array detector and HP Chemstation (A.07.01) software, allowing identification of retinoid isomers according to their specific retention time and absorption maxima. […]

[3] = system: LRAT−/− mice (LCA mouse model); assay: Retinoids in eyes of gavaged LRAT−/− mice, analyzed by HPLC (Example 1); format: in vivo
Experimental: […]. HPLC chromatogram showing retinoid elution in treated and control mice eye and liver tissue. FIG. 1A. Eyes from dark adapted LRAT−/− mouse. FIG. 1B. Eyes from dark-adapted LRAT−/− mouse gavaged with 5 mg all-trans-retinyl palmitate 2 days prior. FIG. 1C. Eyes from dark-adapted LRAT−/− mouse gavaged with 5 mg all-trans-retinyl acetate 2 days prior. FIG. 1D. Eyes from dark-adapted LRAT−/− mouse gavaged with 6.5 mg 9-cis-retinyl acetate 3 days prior. FIG. 1E. Liver tissue from dark adapted LRAT−/− mouse. FIG. 1F. Liver tissue from dark-adapted LRAT−/− mouse gavaged with 5 mg all-trans-retinyl palmitate 2 days prior. FIG. 1G. Liver tissue from dark-adapted LRAT−/− mouse gavaged with 5 mg all-trans-retinyl acetate 2 days prior. FIG. 1H. Liver tissue from dark-adapted LRAT−/− mouse gavaged with 6.5 mg 9-cis-retinyl acetate 3 days prior.
9-cis-retinyl ester restores visual pigment in an LCA mouse model. LRAT−/− mice were gavaged with all-trans-retinyl palmitate, all-trans-retinyl acetate or 9-cis-retinyl acetate as indicated in the legend to FIG. 1A-1H. Following treatment, retinoids were extracted from the eye and liver, and analyzed by HPLC. […] 9-cis-retinyl ester restores visual pigment in approximately 5 hr (FIG. 2), while excess of retinoid is removed and metabolized (as illustrated for 9-cis-retinol).

Lrat−/− mice [4] = assay: Chromophore levels in eyes of Lrat−/− mice after all-trans-retinoid isoforms or 9-cis-retinyl succinate (Example 4); format: in vivo, mouse; conditions: 5 mg by oral gavage in canola oil (40 mg/ml), measured after 3 days; FIG. 6
Experimental: Levels of chromophore (opsin/retinal complexes) were measured in the eyes of mice after dosing with all-trans-retinoid isoforms or 9-cis-retinyl succinate. All-trans-retinyl-palmitate, all-trans-retinyl acetate, all-trans-retinal (vitamin A aldehyde), all-trans-retinol (vitamin A), all-trans-retinyl succinate and 9-cis-retinyl succinate were administered to Lrat−/− mice by oral gavage. Five milligrams of the retinoid isoforms or 9-cis-retinyl succinate were administered in 100% canola oil at a concentration of 40 mg/ml. After 3 days, chromophore levels (as all-trans-retinal oximes or 9-cis-retinal oximes) were determined as described previously. See Van Hooser et al., J. Biol. Chem. 277:19173-182 (2002); Van Hooser et al, Proc. Natl. Acad. Sci. USA 97:8623-28 (2000); Maeda et al., J. Neurochem. 85:944-56 (2003). All reactions involving retinoids were carried out under dim red light.

Compound | restoration of chromophore levels (as 9-cis-retinal oximes), compared with 9-cis-retinaldehyde (Lrat−/− mice [1]) | maximal level of isorhodopsin (as 9-cis-retinal oximes) (Lrat−/− mice [2]; Lrat−/− mouse eyes after 10 gavages, FIG. 5b) | dose at which levels of 9-cis-RAL per eye leveled off (Lrat−/− mice [2]; single varying dose by oral gavage in canola oil, measured after 3 days, FIG. 5a) [µmol] | presence of syn-9-cis-retinal oxime in eyes (formation of the chromophore) ([3]; dark-adapted LRAT−/− mouse gavaged with 6.5 mg 3 days prior, FIG. 1D) | time in which visual pigment is restored ([3]; eye 9-cis-retinal oximes time course, FIG. 2) | restoration of chromophore levels (as all-trans-retinal oximes or 9-cis-retinal oximes) (Lrat−/− mice [4])
CC(=O)OC/C=C(C)/C=C/C=C(C)\C=C\C1=C(C)CCCC1(C)C [9-cis-retinyl acetate] | more efficiently restores chromophore levels than 9-cis-retinaldehyde | comparable to the level of rhodopsin in wildtype (WT) mice | 4 to 6 | restored the presence of syn-9-cis-retinal oxime | approximately 5 hr | –
CC1=C(/C=C/C(C)=C\C=C\C(C)=C\COC(=O)CCC(=O)O)C(C)(C)CCC1 [9-cis-retinyl succinate] | – | – | – | – | – | restored chromophore levels

— patent US10117845B2, “Retinal derivatives and methods for the use thereof for the treatment of visual disorders” (University of Washington, priority 2004, dated 2018)
